For orientation: IC50 means the concentration needed to halve the response being measured.

The values below come from patent publication US6133302A, “5-(3-Phenyl-3-oxo-propyl)-1H-tetrazole derivatives” (Pharmacia & Upjohn SpA, priority 1997, dated 2000).

The assay has as its target T1, kynurenine-3-hydroxylase (Rattus norvegicus, UniProt O88867).
T1 construct: Rat liver mitochondrial extract was used as enzymatic preparation for this assay; from tissue; host or cells: rat liver mitochondrial extract
The assay is described as follows: KYN-3-OH inhibition; kynurenine 3-hydroxylase assay based on enzymatic synthesis of tritiated water in rat liver mitochondrial extract. The conditions noted are these: 37° C., 30 min, pH 8.1, 0.025 mM L-Kynurenine, 0.8 mM NADPH. The class given is biochemical. The protocol:
The assay for kynurenine 3-hydroxylase is based on the enzymatic synthesis of tritiated water during the hydroxylation reaction. Radiolabeled water was quantified following selective adsorption of the isotopic substrate and its metabolite with activated charcoal.
Rat liver mitochondrial extract was used as enzymatic preparation for this assay.
The assay for kynurenine 3-hydroxylase activity was carried out at 37° C. for a time of 30 min. The reaction mixture having a total volume of […] was constituted of 44 mg of suspended extract, 100 mM Tris/Cl^- buffer pH 8.1, 10 mM EDTA, 100 mM KCl, 0.8 mM NADPH, 0.025 mM L-Kynurenine, 0.5 mCi L-(3,5-^3 H)Kynurenine (10 Ci/mmol) and […] of different concentration of inhibitor solutions. After the incubation, the reaction was terminated by adding 1 ml of 7.5% (W/v) activated charcoal, vortexed and centrifuged for 7 min.
A […] aliquot of supernatant was counted by scintillation spectroscopy in 5 ml of liquid scintillation.

T1 sequence (O88867 whole entry): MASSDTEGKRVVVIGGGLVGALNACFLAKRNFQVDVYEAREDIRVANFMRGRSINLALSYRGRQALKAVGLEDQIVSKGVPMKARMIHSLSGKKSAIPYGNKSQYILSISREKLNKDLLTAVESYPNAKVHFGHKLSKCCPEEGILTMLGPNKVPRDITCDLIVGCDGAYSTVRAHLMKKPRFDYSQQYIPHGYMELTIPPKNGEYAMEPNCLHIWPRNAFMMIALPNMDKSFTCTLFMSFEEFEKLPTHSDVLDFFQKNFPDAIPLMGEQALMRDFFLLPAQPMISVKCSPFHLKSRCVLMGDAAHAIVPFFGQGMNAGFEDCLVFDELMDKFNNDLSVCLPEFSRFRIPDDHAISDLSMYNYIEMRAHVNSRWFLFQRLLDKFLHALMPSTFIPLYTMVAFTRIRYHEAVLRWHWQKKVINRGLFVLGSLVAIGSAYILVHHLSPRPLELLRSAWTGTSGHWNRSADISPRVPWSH

Take `O=C(CC(Cc1ccccc1)c1nnn[nH]1)c1ccc(Cl)c(Cl)c1` (stereo not shown) [PNU-168778, 5-[1-benzyl-3-(3,4-dichlorophenyl)-3-oxo-propyl]-1H-tetrazole]: the IC50 came to 2320 nM.
